Assay results: US20130267494A1, “1,4-OXAZEPANE DERIVATIVES” (priority 2010, published 2013)

Tests used:
[1] = biological target: T1, human norepinephrine transporter (Homo sapiens, UniProt P23975); test: Inhibitory action on human norepinephrine transporter ([3H]-norepinephrine uptake in CHO cells); format: cell-based; settings: CHO, compound 1 μM; relative to inhibitory activity of 10 μM DMI as 100%; read-out: inhibitory rate (%)
T1 construct: expressed in transfected cells
Method in brief: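 Stably transfected CHO-K1 cells plated overnight, then given test compound and [3H]-norepinephrine (20 nM final, from 200 nM) in HEPES-buffered saline with 0.5% BSA for 45 min. After PBS washes, retained radioactivity counted by scintillation. Inhibition at 10 μM or 1 μM compound expressed relative to 10 μM DMI as 100%.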

[2] = system: SD female rats; test: Measurement of urethral resistance increasing effect (leak point pressure, oral administration); format: in vivo, rat
Protocol: The urethral resistance increasing effect in rat was measured by a modified method of Matsumoto et al. (WO2009/063992) as follows. That is, SD female rats (CLEA Japan, Inc.) were anesthetized with isoflurane (1.0%; Abbott), and the spinal cord was transected at Th8-9 to avoid the voiding reflex. After laparotomy, an intravesical pressure measurement catheter and a saline infusion catheter (PE-100; Clay Adams) were inserted into the bladder. Thereafter, the abdomen of the rat was closed with aronalpha A “Sankyo” (Daiichi Sankyo). The rat with an inserted catheter was placed in a Bollman cage (KN-326 Bollman cage TYPE III; Natsume). The intravesical pressure measurement catheter was connected to a computer via a pressure transducer (DX-100; Nihon Koden), an amplifier (RPM-6008M; Nihon Koden/303638; SAN-EI), and a multi-channel data analyzer (MP150/MP100; Biopack), and changes in the intravesical pressure were recorded on a hard disc at a frequency of 100 samples/sec. The saline infusion catheter was connected to a 50 mL syringe (Terumo) filled with saline colored with Evans Blue (Wako). The saline was infused into the bladder from the 50 mL syringe filled with saline at a rate of 0.1 mL/sec by using an infusion pump (Kds100; KD Scientific). When the saline leaked from the urethral orifice, infusion was discontinued, and the saline in the bladder was released. The maximum pressure observed during infusion of saline into the bladder and leakage thereof was taken as an LPP (Leak point pressure) value. The measurement was repeated until the LPP value was stabilized, and an average of continuous three stable LPP values was taken as the result. In addition, the measurement of drug effect was started 1 hr after the animal was placed in the Bollman cage. The LPP value (Pre value) was measured, a drug was orally administered, and the measurement of LPP value (Post value) was again started 15 min, 30 min, 1 hr, 2 hr and 4 hr after administration. The urethral resistance increasing effect by the drug was shown by the difference between the LPP value (Post value) and LPP value (Pre value). The drug was orally administered at 2.0 mL/kg, using 0.5% methylcellulose as a vehicle. For detection of a significant difference in the urethral resistance increasing effect by the drug as compared to the vehicle, the following method was used. For comparison of 3 or more groups, the Williams' test was used for a parametric test, and the Shirley-Williams' test was used for a non-parametric test. For comparison of 2 groups, the Student's t-test was used for a parametric test, and the […] was used for a non-parametric test.

T1 sequence (P23975 whole entry): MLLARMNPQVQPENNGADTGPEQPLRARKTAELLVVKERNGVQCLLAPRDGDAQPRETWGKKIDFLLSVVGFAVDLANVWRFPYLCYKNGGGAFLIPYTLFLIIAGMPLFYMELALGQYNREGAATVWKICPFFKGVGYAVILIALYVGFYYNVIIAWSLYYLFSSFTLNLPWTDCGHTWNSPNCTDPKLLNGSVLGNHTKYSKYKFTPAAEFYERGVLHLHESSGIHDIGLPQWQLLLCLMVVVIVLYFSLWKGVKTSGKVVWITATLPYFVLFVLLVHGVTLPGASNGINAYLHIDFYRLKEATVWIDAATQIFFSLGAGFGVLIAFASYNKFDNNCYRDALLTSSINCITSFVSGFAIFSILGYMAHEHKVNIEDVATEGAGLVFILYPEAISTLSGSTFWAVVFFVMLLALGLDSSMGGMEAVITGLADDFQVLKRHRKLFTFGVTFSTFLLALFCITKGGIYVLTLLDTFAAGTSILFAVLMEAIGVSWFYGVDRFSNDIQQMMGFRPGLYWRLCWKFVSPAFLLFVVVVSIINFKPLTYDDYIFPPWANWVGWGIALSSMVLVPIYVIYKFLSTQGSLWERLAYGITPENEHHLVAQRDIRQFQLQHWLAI

Row | SMILES | inhibition at 1 µM [1] [%] | urethral resistance increasing effect (cmH2O) ([2]; 3.0 mg/kg oral, 15 min later) | urethral resistance increasing effect (cmH2O) ([2]; 3.0 mg/kg oral, 30 min later) | urethral resistance increasing effect (cmH2O) ([2]; 10.0 mg/kg oral, 15 min later) | urethral resistance increasing effect (cmH2O) ([2]; 10.0 mg/kg oral, 30 min later)
1 | O=c1[nH]c(-c2ccccc2O[C@@H]2CNCCO[C@H]2c2ccc(Cl)c(F)c2)no1 [Example 577, 3-(2-{[(6R, 7S)-7-(4-chloro-3-fluoro-phenyl)-1,4-oxazepan-6-yl]oxy}phenyl)-1,2,4-oxadiazol-5(4H)-one] | 97 | 14.3 ± 3.0 | 13.1 ± 3.1 | 18.7 ± 1.8 | 15.4 ± 1.5
2 | O=c1[nH]c(-c2ncccc2O[C@@H]2CNCCO[C@H]2c2ccc(Cl)c(F)c2)no1 [Example 584, 3-(3-{[(6R, 7S)-7-(4-chloro-3-fluorophenyl)-1,4-oxazepan-6-yl]oxy}pyridin-2-yl)-1,2,4-oxadiazol-5(4H)-one] | 107 | 9.5 ± 3.5 | 7.2 ± 2.6 | 18.4 ± 3.4 | 16.2 ± 3.3
